In patent US20230048132A1, “CYCLIN-DEPENDENT KINASE INHIBITORS” (SPV THERAPEUTICS INC., priority 2018, published 2023):
Values joined by “and” are separate entries in the source; they are usually repeats but may differ in a detail not shown here. Equal values may be shown once. Read-outs that look alike come from different tables or passages of the source.

Legend:
CDK9-CYCLINT1 = biological target: T1, CDK9-CYCLINT1 (Homo sapiens, UniProt P50750); test: CDK inhibition assay (microfluidic LabChip, IC50 format); assay type: biochemical
T1 construct: purchased Carna

CDK2-CYCLINA = biological target: T2, CDK2-CYCLINA (Homo sapiens, UniProt P24941); test: as above; assay type: biochemical
T2 construct: purchased Millipore

CDK6-CYCLIND3 = biological target: T3, CDK6-CYCLIND3 (Homo sapiens, UniProt Q00534); test: as above; assay type: biochemical
T3 construct: purchased Carna

CDK4-CYCLIND1 = CDK4-CYCLIND1 (Homo sapiens, UniProt P11802); test: as above
CDK2-CYCLINE = biological target: T4, CDK2-CYCLINE (Homo sapiens, UniProt P24941); test: as above; assay type: biochemical; settings: Table 3; purified enantiomers; read-out: CDK2-E (E1/E2)
T4 construct: purchased Millipore

all cell lines tested = test: 2D cell proliferation assay, geometric mean over the cell line panel; assay type: cell-based; settings: Table 5 lower part; geometric mean over the 8-line panel; read-out: Geomean abs. IC50 value
Procedure: (§1) Viability of the cells was analyzed by using the CellTiter-Blue® Cell Viability Assay (Promega), and was performed according to manufacturer's instructions. Briefly, cells were harvested from exponential phase cultures (Chapter 6.6), counted and plated in 96-well flat-bottom microtiter plates at a cell density of 4,000-60,000 cells/well in a volume of 140 μl per well. After a 24 hours recovery period, 10 μL cell culture medium (six control wells/plate) or culture medium with test compound were added (Chapter 6.2). The compounds were applied at five concentrations in full-log increments up to 100 μM in duplicate. Cultures were incubated at 37° C. and 5% CO2 in a humidified atmosphere for another three days. After three days of treatment, 20 μl/well CellTiter-Blue® reagent was added. Following incubation with CellTiter-Blue® reagent for up to four hours, fluorescence (FU) was measured by using the Enspire Multimode Plate Reader (excitation λ=570 nm, emission λ=600 nm). For calculations, the mean values of duplicate/sextuplicate (untreated control) data were used.
(§2) IC values are reported as relative IC50 values and absolute IC50 and IC70 values. […] The absolute IC70 value gives the concentration of the test compound that achieves T/C=30%. The relative IC50 value is the concentration of test compound that gives a response halfway between the top and bottom plateau of the sigmoidal concentration-response curve (inflection point of the curve). Calculation was done by 4parameter non-linear curve fit (Oncotest Data Warehouse Software).
(§3) If an IC50 or IC70 value could not be determined within the examined dose range (because a compound was either too active or lacked activity), the lowest or highest concentration studied was used for calculation of the geometric mean value.
The overall potency of a compound was determined by the geometric mean IC50/IC70 values of all individual IC50/IC70 values. In the heatmap representation of IC50 and IC70 values, the distribution of the IC50 or IC70 values obtained for a test compound in the individual cell lines is given in relation to the geometric mean IC50 or IC70 value, obtained over all PDX models tested. The individual IC values range from 1/32-fold geometric mean IC (corresponding to very potent compound activity or high tumor sensitivity) to 32-fold geometric mean IC (corresponding to lack of compound activity or tumor resistance). The heatmap presentation, therefore, represents an antiproliferative “fingerprint” profile of a test compound.

CDK7 CyclinH = CDK7 CyclinH (Homo sapiens, UniProt P50613); test: CDK inhibition assay (microfluidic LabChip, IC50 format); assay type: biochemical
LEXFAM MV4-11 = test: 2D cell proliferation assay (CellTiter-Blue); assay type: cell-based; settings: Homo sapiens, 72 h, three days of treatment, read-out: abs. IC50
Procedure: as §1
(§4) An assay was considered fully evaluable if the following quality control criteria were fulfilled: • control/background ratio>3.0-Z′-factor calculated within the assay plate>0.5 [7]—coefficient of variation in the growth control wells <30%
(§5) Drug effects were expressed in terms of the percentage of the fluorescence signal, obtained by comparison of the mean signal in the treated wells with the mean signal of the untreated controls (expressed by the test-versus-control value, T/C-value [%]):
as §2, §3

MEXF WM-266-4 = test: 2D cell proliferation assay (CellTiter-Blue); assay type: cell-based; settings: Homo sapiens, 72 h, three days of treatment, read-out: abs. IC50
Procedure: as §1, §4, §5, §2, §3

LXFA A549 = test: 2D cell proliferation assay (CellTiter-Blue); assay type: cell-based; settings: Homo sapiens, 72 h, three days of treatment, read-out: abs. IC50
Procedure: as §1, §4, §5, §2, §3

MAXFTN ZR-75-1 (ER+) = test: 2D cell proliferation assay (CellTiter-Blue); assay type: cell-based; settings: Homo sapiens, 72 h, three days of treatment, read-out: abs. IC50
Procedure: as §1, §4, §5, §2, §3

LXFL NCl-H1299 = test: 2D cell proliferation assay (CellTiter-Blue); assay type: cell-based; settings: 72 h, three days of treatment, read-out: abs. IC50
Procedure: as §1, §4, §5, §2, §3

MAXFLB MCF7 (ER+) = test: 2D cell proliferation assay (CellTiter-Blue); assay type: cell-based; settings: Homo sapiens, 72 h, three days of treatment, read-out: abs. IC50
Procedure: as §1, §4, §5, §2, §3

CDK1/B = CDK1/B (Homo sapiens, UniProt P06493); test: CDK inhibition assay (microfluidic LabChip, IC50 format); assay type: biochemical
[1] = Table 3, purified enantiomers, read-out: CDK9-T (E1/E2)
[2] = Table 3, purified enantiomers, read-out: CDK2-A (E1/E2)
[3] = Table 3, purified enantiomers, read-out: CDK6 (E1/E2)
[4] = CDK4 (E1/E2), Table 3, purified enantiomers
[5] = Table 4a, read-out: CDK9 CyclinT1 IC50
[6] = Table 4a, read-out: CDK2 CyclinA IC50
[7] = Table 4a, read-out: CDK6 CyclinD3 IC50
[8] = CDK4 CyclinD1 IC50, Table 4a, a second value in parentheses for some compounds
[9] = Table 4b, lower part, read-out: CDK9 CyclinT1 IC50
[10] = Table 4b, lower part, read-out: CDK2 CyclinA IC50
[11] = CDK4 CyclinD1 IC50, Table 4b, lower part, a second value in parentheses for some compounds

Chain of CDK7 CyclinH (P50613 whole entry): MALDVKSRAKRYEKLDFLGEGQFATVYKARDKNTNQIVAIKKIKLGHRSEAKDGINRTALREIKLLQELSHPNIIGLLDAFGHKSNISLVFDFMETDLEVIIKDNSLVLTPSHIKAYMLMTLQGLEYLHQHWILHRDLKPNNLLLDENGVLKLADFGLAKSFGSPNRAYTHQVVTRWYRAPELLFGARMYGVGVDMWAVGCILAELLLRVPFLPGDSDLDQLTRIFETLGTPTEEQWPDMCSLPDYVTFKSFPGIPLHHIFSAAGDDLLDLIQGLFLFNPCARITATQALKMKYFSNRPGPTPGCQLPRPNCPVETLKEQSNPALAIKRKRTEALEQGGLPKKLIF
Chain of CDK7 CyclinH (P51946 whole entry partner): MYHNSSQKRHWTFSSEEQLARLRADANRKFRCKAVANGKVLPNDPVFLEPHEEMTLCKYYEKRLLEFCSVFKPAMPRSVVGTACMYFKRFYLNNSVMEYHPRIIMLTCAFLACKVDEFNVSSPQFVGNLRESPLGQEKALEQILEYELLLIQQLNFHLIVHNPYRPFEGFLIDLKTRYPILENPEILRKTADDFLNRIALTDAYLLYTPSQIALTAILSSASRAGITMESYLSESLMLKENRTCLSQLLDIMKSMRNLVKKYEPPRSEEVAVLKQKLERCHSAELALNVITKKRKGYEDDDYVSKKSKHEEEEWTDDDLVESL
Chain of CDK7 CyclinH (P51948 whole entry partner): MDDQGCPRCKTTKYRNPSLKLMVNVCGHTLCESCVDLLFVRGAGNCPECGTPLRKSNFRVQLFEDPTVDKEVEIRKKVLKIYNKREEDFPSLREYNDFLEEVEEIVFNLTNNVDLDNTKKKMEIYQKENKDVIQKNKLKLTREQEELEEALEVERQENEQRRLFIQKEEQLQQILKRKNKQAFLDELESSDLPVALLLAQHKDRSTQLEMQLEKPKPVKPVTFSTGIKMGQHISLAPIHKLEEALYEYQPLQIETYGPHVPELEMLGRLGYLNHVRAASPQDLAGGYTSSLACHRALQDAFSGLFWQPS
T3 sequence (Q00534 whole entry): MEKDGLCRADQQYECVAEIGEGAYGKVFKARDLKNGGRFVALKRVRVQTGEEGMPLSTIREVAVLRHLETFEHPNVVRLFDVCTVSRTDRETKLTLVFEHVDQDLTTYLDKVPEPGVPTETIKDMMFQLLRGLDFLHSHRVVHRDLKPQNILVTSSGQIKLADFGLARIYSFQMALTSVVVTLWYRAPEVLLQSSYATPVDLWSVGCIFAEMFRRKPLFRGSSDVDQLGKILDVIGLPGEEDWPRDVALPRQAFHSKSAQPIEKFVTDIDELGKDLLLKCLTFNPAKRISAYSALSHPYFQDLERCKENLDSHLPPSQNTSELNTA
T3 sequence (P30281 whole entry partner): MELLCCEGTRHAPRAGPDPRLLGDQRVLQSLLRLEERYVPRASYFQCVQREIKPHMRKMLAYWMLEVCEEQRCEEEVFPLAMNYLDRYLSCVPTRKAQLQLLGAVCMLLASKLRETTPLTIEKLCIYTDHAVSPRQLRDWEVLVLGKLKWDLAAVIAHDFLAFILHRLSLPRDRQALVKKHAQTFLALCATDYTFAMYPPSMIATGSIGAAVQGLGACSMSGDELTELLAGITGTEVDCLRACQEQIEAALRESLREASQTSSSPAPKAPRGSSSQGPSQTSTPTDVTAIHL
Chain of CDK1/B (P06493 whole entry, species assumed): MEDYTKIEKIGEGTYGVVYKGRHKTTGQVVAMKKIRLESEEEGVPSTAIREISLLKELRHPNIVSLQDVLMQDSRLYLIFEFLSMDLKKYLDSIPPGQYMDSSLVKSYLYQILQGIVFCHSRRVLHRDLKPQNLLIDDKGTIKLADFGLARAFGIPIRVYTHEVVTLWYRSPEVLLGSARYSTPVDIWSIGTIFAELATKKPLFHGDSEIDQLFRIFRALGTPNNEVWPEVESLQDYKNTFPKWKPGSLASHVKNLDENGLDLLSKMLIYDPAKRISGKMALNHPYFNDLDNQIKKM
Chain of CDK1/B (P14635 whole entry partner, species assumed): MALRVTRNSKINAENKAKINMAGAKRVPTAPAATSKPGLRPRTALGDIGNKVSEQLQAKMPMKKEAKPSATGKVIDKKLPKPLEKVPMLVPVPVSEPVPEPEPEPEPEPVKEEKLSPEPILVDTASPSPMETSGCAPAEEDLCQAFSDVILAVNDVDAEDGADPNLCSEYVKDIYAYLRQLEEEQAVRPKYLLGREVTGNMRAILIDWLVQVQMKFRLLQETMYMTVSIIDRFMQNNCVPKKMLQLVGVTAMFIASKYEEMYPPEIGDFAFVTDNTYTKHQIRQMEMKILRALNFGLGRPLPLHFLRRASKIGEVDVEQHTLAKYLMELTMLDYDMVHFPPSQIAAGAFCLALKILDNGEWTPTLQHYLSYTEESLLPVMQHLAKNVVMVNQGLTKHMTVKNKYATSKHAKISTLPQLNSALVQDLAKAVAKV
Chain of CDK4-CYCLIND1 (P11802 whole entry): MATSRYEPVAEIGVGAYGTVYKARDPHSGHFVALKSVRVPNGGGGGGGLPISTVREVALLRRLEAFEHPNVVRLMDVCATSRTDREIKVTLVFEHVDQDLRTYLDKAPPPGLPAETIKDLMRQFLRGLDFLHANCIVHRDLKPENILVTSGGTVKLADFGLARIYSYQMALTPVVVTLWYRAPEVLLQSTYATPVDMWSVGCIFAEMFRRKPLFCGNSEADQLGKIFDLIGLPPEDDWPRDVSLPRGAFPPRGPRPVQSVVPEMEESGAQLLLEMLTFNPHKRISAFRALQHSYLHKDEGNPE
Chain of CDK4-CYCLIND1 (P24385 whole entry partner): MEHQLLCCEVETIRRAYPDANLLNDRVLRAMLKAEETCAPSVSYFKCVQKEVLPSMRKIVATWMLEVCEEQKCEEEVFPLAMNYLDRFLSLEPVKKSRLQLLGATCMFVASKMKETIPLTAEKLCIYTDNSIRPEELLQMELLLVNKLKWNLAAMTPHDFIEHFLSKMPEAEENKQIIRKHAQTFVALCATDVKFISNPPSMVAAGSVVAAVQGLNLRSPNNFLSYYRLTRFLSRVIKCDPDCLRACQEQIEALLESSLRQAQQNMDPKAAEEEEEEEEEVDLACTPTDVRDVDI
T1 sequence (P50750 whole entry): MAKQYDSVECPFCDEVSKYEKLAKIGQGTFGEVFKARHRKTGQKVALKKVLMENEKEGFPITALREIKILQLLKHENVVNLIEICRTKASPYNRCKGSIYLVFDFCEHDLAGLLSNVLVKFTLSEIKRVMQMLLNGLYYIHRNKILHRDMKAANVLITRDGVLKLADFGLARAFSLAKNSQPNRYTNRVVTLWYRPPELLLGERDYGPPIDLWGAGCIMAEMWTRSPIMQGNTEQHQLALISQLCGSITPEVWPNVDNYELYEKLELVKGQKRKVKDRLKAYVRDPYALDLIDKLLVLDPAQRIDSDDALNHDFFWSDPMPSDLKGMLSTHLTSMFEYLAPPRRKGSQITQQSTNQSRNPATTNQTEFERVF
T1 sequence (O60563 whole entry partner): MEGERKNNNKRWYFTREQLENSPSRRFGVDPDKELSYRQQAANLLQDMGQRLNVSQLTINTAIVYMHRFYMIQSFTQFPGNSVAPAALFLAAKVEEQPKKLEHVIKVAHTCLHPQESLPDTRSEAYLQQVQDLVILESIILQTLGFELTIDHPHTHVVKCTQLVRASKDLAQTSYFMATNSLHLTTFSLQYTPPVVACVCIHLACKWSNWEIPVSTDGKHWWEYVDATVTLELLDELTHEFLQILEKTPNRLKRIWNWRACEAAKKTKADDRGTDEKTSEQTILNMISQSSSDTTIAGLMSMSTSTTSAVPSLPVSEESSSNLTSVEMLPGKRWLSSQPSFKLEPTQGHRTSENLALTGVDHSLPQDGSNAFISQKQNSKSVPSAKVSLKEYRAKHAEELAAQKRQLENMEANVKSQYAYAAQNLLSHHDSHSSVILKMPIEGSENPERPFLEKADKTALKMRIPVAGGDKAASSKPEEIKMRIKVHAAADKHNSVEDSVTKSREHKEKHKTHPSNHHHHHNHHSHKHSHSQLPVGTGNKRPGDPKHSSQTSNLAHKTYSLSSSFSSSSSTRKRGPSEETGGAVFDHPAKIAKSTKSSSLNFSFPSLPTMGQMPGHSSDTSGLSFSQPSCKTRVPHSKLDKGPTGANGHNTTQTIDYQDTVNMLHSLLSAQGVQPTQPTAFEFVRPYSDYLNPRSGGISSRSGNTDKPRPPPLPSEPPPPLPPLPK

| Structure (SMILES) | IC50 (CDK2-CYCLINA; [2]) [nM] | IC50 (CDK6-CYCLIND3; [3]) [nM] | IC50 (CDK4-CYCLIND1; [4]) [nM] | IC50 (CDK2-CYCLINE) [µM] | IC50 (CDK9-CYCLINT1; [5]) | IC50 (CDK2-CYCLINA; [6]) | IC50 (CDK7 CyclinH; Table 4a) [nM] | IC50 (CDK4-CYCLIND1; [8]) | further results |
| --- | --- | --- | --- | --- | --- | --- | --- | --- | --- |
| CN1CCN(c2ccc(Nc3ncc4c(n3)N(C3CCCC3)C(=O)[C@@]3(CCNC3=O)C4)cc2F)CC1 [Example D51, (R)-8-cyclopentyl-2-((3-fluoro-4-(4-methylpiperazin-1-yl)phenyl)amino)-5,8-dihydro-7H-spiro[pyrido[2,3-d]pyrimidine-6,3′-pyrrolidine]-2′,7-dione] | 5940 | 444 | 211 | 11.5 | – | – | – | – | IC50 (CDK9-CYCLINT1; [1]): 1150 nM |
| CC(C)N1CCN(c2ccc(Nc3ncc4c(n3)N(C3CCCC3)C(=O)[C@@]3(CCNC3=O)C4)cc2F)CC1 [Example D53, (R)-8-cyclopentyl-2-((3-fluoro-4-(4-isopropylpiperazin-1-yl)phenyl)amino) -5,8-dihydro-7H-spiro[pyrido[2,3-d]pyrimidine-6,3′-pyrrolidine]-2′,7-dione] | 9670 | 384 | 178 | 12.1 | – | – | – | – | – |
| Cc1cc(Nc2ncc3c(n2)N(C2CCCC2)C(=O)[C@]2(CCNC2=O)C3)ccc1N1CCN(C(C)C)CC1 [Example D158, (S)-8-cyclopentyl-2-((4-(4-isopropylpiperazin-1-yl)-3-methylphenyl)amino)-5,8-dihydro-7H-spiro[pyrido[2,3-d]pyrimidine-6,3′-pyrrolidine]-2′,7-dione] | – | – | – | – | 5.25 nM | 22.2 nM | 120 | 1.04 nM | IC50 (CDK6-CYCLIND3; [7]): 2.17 nM; IC50 (all cell lines tested): 301 nM; IC50 (LEXFAM MV4-11): 38 nM; IC50 (MEXF WM-266-4): 451 nM; IC50 (LXFA A549): 554 nM; IC50 (MAXFTN ZR-75-1 (ER+)): 5.52 µM; IC50 (LXFL NCl-H1299): 257 nM; IC50 (MAXFLB MCF7 (ER+)): 55 nM |
| CC(C)N1CCN(c2ccc(Nc3ncc4c(n3)N(C3CCCC3)C(=O)[C@]3(CCNC3=O)C4)c(F)c2)CC1 [Example D148, (S)-8-cyclopentyl-2-((2-fluoro-4-(4-isopropylpiperazin-1-yl)phenyl)amino)-5,8-dihydro-7H-spiro[pyrido[2,3-d]pyrimidine-6,3′-pyrrolidine]-2′,7-dione] | – | – | – | – | 6250 nM and 987 nM | 83200 nM and > 10000 nM | > 100000 | 1270 nM and 188 nM | IC50 (CDK6-CYCLIND3; [7]): 4670 nM; IC50 (CDK1/B; Table 4a): > 10000 nM |
| O=C1NCC[C@@]12Cc1cnc(Nc3ccc(N4CCNCC4)cc3)nc1N(C1CCCC1)C2=O [Example D56, (S)-8-cyclopentyl-2-((4-(piperazin-1-yl)phenyl)amino)-5,8-dihydro-7H-spiro[pyrido[2,3-d]pyrimidine-6,3′-pyrrolidine]-2′,7-dione] | 48.2 | 2.67 | 1.4 | 0.104 | – | – | – | – | IC50 (CDK9-CYCLINT1; [1]): 11.1 nM |
| O=C1NCC[C@]12Cc1cnc(Nc3ccc(N4CCNCC4)cn3)nc1N(C1CCCC1)C2=O [Example D57, (R)-8-cyclopentyl-2-((5-(piperazin-1-yl)pyridin-2-yl)amino)-5,8-dihydro-7H-spiro[pyrido[2,3-d]pyrimidine-6,3′-pyrrolidine]-2′,7-dione] | > 100000 | 2010 | 1050 | > 100 | – | – | – | – | IC50 (CDK9-CYCLINT1; [1]): > 100000 nM |
| CN1CCN(c2ccc(Nc3ncc4c(n3)N(C3CCCC3)C(=O)[C@]3(CCNC3=O)C4)cc2)CC1 [Example D144, (S)-8-cyclopentyl-2-((4-(4-methylpiperazin-1-yl)phenyl)amino)-5,8-dihydro-7H-spiro[pyrido[2,3-d]pyrimidine-6,3′-pyrrolidine]-2′,7-dione] | – | – | – | – | 4.84 nM | 29.2 nM | 229 | – | IC50 (CDK6-CYCLIND3; [7]): 1.54 nM; IC50 (all cell lines tested): 475 nM; IC50 (LEXFAM MV4-11): 10 nM; IC50 (MEXF WM-266-4): 358 nM; IC50 (LXFA A549): 1290 nM; IC50 (MAXFTN ZR-75-1 (ER+)): 100 µM; IC50 (LXFL NCl-H1299): 219 nM; IC50 (MAXFLB MCF7 (ER+)): 114 nM |
| CN1CCN(C2CCN(c3ccc(Nc4ncc5c(n4)N(C4CCCC4)C(=O)[C@]4(CCNC4=O)C5)cc3F)CC2)CC1 [Example D105, (S)-8-cyclopentyl-2-((3-fluoro-4-(4-(4-methylpiperazin-1-yl)piperidin-1-yl)phenyl)amino)-5,8-dihydro-7H-spiro[pyrido[2,3-d]pyrimidine-6,3′-pyrrolidine]-2′,7-dione] | – | – | – | – | < 3.2 nM | 54.5 nM | 134 | < 3.2 nM | IC50 (CDK1/B; Table 4a): 172 nM |
| CN(C)CCOc1ccc(Nc2ncc3c(n2)N(C2CCCC2)C(=O)[C@]2(CCNC2=O)C3)nc1 [Example D138, (S)-8-cyclopentyl-2-((5-(2-(dimethylamino)ethoxy)pyridin-2-yl)amino)-5,8-dihydro-7H-spiro[pyrido[2,3-d]pyrimidine-6,3′-pyrrolidine]-2′,7-dione] | – | – | – | – | 204 nM | > 10000 nM | > 10000 | 4.58 nM | IC50 (CDK1/B; Table 4a): > 10000 nM |
| CC(C)N1CC2(CN(c3ccc(Nc4ncc5c(n4)N(C4CCCC4)C(=O)[C@]4(CCNC4=O)C5)cc3)C2)C1 [Example D102, (S)-8-cyclopentyl-2-((4-(6-isopropyl-2,6-diazaspiro[3.3]heptan-2-yl)phenyl)amino)-5,8-dihydro-7H-spiro[pyrido[2,3-d]pyrimidine-6,3′-pyrrolidine]-2′,7-dione] | – | – | – | – | – | – | – | – | IC50 (CDK9-CYCLINT1; [9]): < 3.2 nM; IC50 (CDK2-CYCLINA; [10]): 126 nM; IC50 (CDK7 CyclinH; Table 4b, lower part): 642 nM; IC50 (CDK4-CYCLIND1; [11]): < 3.2 nM; IC50 (CDK1/B; Table 4b, lower part): 464 nM |
| CS(=O)(=O)N1CCC(Nc2ncc3c(n2)N(C24CC(C2)C4)C(=O)[C@]2(CCNC2=O)C3)CC1 [Example D123, (S)-8-(bicyclo[1.1.1]pentan-1-yl)-2-((1-(methylsulfonyl)piperidin-4-yl)amino)-5,8-dihydro-7H-spiro[pyrido[2,3-d]pyrimidine-6,3′-pyrrolidine]-2′,7-dione] | – | – | – | – | – | – | – | – | IC50 (CDK9-CYCLINT1; [9]): 19.3 nM; IC50 (CDK2-CYCLINA; [10]): 4.19 nM; IC50 (CDK7 CyclinH; Table 4b, lower part): 880 nM; IC50 (CDK4-CYCLIND1; [11]): < 3.2 nM; IC50 (CDK1/B; Table 4b, lower part): 22 nM |
